Data on twelve compounds can be found in ChEMBL document CHEMBL1201862, “PubChem BioAssay data set” (2004).

Calls of active or inactive are those of the source. Some results are limits rather than exact numbers.

One assay addresses Nonstructural protein 1 (Influenza A virus, UniProt Q194T2). The assay is classed as functional, Influenza A virus (A/California/07/2009(H1N1)).
In assay [1] the target is T1, Short transient receptor potential channel 4 (Mus musculus, UniProt Q9QUQ5).
T1 sequence (Q9QUQ5 whole entry): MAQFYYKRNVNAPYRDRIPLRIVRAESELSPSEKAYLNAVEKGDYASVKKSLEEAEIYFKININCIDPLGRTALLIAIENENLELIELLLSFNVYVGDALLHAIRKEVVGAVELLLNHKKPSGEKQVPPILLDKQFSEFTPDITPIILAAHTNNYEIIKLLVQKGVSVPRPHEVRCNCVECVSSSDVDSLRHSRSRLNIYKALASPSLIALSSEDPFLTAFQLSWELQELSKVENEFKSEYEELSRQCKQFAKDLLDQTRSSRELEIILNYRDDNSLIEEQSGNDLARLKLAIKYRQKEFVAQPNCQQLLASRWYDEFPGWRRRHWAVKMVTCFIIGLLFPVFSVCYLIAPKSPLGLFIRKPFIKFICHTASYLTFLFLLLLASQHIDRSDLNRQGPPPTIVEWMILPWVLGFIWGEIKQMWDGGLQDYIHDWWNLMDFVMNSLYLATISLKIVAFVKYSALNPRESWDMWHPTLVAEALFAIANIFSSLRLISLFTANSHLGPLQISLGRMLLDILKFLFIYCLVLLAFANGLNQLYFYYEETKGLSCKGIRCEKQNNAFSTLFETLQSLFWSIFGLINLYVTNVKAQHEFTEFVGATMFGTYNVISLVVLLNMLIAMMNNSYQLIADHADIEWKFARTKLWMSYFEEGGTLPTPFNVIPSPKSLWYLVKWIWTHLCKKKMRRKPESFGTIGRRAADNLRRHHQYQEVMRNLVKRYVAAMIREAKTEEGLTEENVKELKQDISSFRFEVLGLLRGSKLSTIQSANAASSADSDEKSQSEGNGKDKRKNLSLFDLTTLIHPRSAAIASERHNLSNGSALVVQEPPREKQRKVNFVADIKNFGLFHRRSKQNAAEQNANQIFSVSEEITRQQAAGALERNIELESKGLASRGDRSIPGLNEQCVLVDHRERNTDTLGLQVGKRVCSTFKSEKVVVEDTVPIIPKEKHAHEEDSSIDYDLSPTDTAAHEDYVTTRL
Kind of assay: calcium entry via TRPC4 opening agents – cell-based, HEK293 TRPC4/mu-opioid, Fluo-4 calcium, dose response (AID 434937). Format: functional.

Assay [2] in a line: NIH-3T3 fibroblast cytotoxicity, dose response, cytotoxicity control, cell-based, fluorescence, Alamar Blue, secondary assay (AID 2327).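 Also: NIH-3T3 mouse fibroblasts cultured with fluconazole at 8 µg/mL.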 The assay is classed as functional. (Resazurin is reduced to fluorescent resorufin, in cell work by metabolically active cells.)
Assay [3] in a line: fluconazole-exposed Candida albicans growth modulators – fluorescence, retest, confirmation (AID 2467). Format: functional, cell-based.
The test system of assay [4] is HEK293. The experiment in a line: cells. To be noted: Homo sapiens.
Assay [5] relates to HEK293. Kind of assay: cells. To be noted: Homo sapiens. The source holds these as a separate data set.
The nature of assay [6]: cells. Format: functional, cell-based.
Assay [7] in a line: cells. The assay is classed as functional, cell-based. This is another data set of the same source.
A further assay concerns the target T2, Aminopeptidase N (Plasmodium falciparum FcB1/Columbia, UniProt O96935).
T2 sequence (O96935 whole entry): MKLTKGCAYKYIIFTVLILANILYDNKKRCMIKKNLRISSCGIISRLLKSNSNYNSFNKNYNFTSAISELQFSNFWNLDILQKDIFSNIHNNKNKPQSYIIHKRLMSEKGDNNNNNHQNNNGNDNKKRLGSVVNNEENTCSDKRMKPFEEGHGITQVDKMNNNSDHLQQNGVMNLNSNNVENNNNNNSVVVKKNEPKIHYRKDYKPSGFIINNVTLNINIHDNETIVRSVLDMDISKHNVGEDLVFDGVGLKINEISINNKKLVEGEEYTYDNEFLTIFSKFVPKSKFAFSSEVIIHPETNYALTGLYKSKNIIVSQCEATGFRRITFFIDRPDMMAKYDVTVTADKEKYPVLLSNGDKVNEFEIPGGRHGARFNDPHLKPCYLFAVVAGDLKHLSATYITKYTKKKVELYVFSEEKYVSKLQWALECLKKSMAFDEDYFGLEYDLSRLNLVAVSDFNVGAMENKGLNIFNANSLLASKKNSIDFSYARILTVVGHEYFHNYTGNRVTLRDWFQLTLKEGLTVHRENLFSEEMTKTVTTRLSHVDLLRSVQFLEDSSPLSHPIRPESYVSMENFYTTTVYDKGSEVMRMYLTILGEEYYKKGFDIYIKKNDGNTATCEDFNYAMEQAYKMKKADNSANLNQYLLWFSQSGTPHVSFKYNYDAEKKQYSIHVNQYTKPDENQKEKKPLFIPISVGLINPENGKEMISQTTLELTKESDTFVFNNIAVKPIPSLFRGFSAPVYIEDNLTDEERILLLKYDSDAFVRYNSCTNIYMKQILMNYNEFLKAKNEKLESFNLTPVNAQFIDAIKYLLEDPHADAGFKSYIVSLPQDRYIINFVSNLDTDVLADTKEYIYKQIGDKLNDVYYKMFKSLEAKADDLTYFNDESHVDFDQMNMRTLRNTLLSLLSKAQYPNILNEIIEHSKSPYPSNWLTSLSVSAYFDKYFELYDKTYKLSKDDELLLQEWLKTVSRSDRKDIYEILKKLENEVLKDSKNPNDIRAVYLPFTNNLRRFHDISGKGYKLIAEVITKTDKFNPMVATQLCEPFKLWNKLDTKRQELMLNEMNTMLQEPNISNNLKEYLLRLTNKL
The experiment in a line: malaria alanyl aminopeptidase activity blockers – biochemical, fluorogenic H-Leu-NHMec substrate, 1536-well (AID 1445). Set-up: species or system Plasmodium falciparum 3D7, 3D7.

Assay [8] addresses T3, Sentrin-specific protease 7 (Homo sapiens, UniProt Q9BQF6).
T3 sequence (Q9BQF6 whole entry): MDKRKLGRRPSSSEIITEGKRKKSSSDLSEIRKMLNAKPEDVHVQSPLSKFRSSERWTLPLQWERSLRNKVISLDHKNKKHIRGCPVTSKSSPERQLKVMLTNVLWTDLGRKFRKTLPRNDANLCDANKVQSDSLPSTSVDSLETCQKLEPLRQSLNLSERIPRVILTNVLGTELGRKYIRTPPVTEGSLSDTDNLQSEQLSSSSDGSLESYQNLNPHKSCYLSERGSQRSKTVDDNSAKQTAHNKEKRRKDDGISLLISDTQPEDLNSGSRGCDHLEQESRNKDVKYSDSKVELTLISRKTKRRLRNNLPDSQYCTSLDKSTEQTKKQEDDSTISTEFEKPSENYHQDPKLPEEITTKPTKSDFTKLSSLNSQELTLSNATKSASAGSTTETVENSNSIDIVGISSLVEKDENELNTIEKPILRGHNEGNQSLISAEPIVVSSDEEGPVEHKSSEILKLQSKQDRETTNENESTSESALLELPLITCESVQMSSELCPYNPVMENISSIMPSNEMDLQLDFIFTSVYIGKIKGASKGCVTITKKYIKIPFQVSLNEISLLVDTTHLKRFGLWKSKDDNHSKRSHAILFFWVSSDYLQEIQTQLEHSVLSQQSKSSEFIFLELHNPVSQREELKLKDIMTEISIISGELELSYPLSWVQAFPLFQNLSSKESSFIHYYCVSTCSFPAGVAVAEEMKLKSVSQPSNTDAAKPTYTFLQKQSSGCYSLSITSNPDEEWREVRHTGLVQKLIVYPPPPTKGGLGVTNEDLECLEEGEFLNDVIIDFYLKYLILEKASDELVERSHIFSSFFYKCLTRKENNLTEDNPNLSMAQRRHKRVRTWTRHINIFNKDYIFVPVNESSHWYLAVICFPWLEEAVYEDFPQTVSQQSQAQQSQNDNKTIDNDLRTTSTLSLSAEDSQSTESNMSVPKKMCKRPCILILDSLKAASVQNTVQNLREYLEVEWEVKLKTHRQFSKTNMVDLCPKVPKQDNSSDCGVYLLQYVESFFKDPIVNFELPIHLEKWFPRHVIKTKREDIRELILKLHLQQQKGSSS
The assay is classed as functional.

The target in assay [9] is T4, Sentrin-specific protease 6 (Homo sapiens, UniProt Q9GZR1).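 Also: Luminescence-based dose-response confirmatory assay of SENP6 inhibition, following up an ultra-high-throughput screen.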
T4 sequence (Q9GZR1 whole entry): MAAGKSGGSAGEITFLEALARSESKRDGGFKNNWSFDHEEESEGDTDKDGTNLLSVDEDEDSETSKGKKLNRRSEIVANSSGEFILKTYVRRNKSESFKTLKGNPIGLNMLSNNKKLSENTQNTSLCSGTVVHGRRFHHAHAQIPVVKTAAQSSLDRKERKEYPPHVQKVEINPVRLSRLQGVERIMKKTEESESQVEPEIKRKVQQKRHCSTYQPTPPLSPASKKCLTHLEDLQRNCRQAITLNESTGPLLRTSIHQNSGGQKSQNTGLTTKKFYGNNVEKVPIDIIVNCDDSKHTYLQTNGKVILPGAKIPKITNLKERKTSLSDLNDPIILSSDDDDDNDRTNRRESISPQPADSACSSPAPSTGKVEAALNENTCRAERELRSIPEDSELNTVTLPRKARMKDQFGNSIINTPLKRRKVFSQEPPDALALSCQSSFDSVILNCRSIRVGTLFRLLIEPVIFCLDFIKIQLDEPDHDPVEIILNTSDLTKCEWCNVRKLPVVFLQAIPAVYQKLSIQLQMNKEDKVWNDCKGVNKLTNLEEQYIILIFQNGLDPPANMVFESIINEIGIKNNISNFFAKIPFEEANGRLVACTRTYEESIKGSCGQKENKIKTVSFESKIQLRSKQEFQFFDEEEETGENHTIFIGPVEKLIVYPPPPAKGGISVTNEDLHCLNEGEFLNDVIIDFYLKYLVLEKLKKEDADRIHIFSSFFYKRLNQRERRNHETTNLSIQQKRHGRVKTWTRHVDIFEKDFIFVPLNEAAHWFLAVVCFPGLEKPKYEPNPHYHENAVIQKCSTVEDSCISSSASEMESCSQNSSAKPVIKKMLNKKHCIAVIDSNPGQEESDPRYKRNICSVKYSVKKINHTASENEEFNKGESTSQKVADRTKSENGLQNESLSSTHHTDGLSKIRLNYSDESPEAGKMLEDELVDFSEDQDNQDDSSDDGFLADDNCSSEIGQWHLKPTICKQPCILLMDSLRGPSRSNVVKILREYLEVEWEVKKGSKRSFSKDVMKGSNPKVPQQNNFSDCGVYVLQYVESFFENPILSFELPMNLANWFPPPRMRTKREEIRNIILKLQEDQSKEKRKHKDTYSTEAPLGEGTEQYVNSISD
The assay is classed as functional.

The target of assay [10] is T5, Sentrin-specific protease 8 (Homo sapiens, UniProt Q96LD8).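 Also: luminescence read-out of SENP8 inhibition, dose-response confirmation following an ultra-high-throughput screen.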
T5 sequence (Q96LD8 whole entry): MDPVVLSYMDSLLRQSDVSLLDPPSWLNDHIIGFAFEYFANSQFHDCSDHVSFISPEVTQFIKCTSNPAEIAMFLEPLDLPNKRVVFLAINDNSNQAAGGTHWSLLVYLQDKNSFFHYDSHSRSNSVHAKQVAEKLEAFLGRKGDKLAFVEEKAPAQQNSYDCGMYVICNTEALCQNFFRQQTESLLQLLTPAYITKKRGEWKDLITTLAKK
The assay is classed as functional.

The target of assay [11] is T6, Polyadenylate-binding protein 1 (Homo sapiens, UniProt P11940). Kind of assay: MLLE binding blockers, Cy5 peptide tracer – biochemical, fluorescence polarization, Cy5-PAM2 peptide, secondary, miRNA deadenylation inhibitor project, dose response (AID 602260). Format: functional. To be noted: read-out: IC50_Mean. For orientation: Polarisation of emitted light reports the rotation of a fluorescent probe.
T6 sequence (P11940 whole entry): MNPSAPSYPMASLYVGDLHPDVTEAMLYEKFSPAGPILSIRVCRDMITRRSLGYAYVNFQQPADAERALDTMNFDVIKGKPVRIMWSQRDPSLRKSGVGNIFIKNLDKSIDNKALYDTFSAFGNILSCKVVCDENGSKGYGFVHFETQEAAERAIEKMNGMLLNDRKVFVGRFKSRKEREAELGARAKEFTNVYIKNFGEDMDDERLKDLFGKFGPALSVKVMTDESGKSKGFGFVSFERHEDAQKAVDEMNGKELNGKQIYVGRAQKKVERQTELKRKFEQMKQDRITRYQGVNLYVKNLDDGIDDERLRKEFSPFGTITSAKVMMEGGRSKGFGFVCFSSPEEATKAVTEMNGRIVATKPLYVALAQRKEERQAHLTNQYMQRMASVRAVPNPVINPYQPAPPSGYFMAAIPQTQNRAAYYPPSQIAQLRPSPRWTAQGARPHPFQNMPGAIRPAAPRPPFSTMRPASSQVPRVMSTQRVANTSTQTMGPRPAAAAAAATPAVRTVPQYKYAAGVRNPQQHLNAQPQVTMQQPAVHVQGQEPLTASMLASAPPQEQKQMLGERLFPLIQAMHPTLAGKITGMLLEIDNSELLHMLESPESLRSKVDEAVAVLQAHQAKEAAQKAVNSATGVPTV

A further assay concerns INS1. The experiment in a line: INS-1E survival protection against cytokine death – cell-based, luminescence, retest, dose response (AID 449756).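 Also: cell death triggered by IL-1 beta plus TNF-alpha plus IFN-gamma mixture; protective hits raise ATP signal compared with cytokine alone wells.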 The assay is classed as functional. To be noted: Rattus norvegicus.
Assay [12] has as its target T6, Polyadenylate-binding protein 1. Kind of assay: MLLE domain peptide-binding blockers, IC50 – biochemical, fluorescence polarization, FITC-PAM2 peptide, dose response (AID 602259). The assay is classed as functional. To be noted: read-out: IC50_Mean.

Chain of Nonstructural protein 1 (Q194T2 whole entry): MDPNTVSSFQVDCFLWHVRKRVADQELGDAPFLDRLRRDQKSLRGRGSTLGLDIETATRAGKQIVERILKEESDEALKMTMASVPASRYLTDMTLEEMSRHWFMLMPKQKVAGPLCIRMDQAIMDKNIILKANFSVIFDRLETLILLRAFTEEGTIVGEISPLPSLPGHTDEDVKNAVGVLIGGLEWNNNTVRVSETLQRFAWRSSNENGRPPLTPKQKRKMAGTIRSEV

For the compound `CC1(C)OC(c2ccccc2)=C/C(=C/C=C2C(=O)c3ccccc3C2=O)O1`, the IC50 on Nonstructural protein 1 was 6.6 µM (active).
In the case of `COc1cccc(CN2CCNC(=O)C2CC(=O)N(C)CCc2ccccn2)c1` (stereo not given), the EC50 – broadly, the concentration needed to bring the measured effect to its halfway point – in [1] is 4.73 µM (active).
In the case of `Fc1cccc(-n2cc(-c3ccccc3)c3c(S)ncnc32)c1`, the EC50 in assay [2] was > 150 µM (inactive); in assay [3], 8.62 µM (active); with HEK293 [4], > 59.6 µM (inactive); in the assay on HEK293 [5], > 59.6 µM (inactive).
`COc1ccc(CCN(C)c2ccc(S(=O)(=O)N3CCCC3)cc2[N+](=O)[O-])cc1OC`: the EC50 with HEK293 [4] and with HEK293 [5] was > 59.7 µM (inactive) in each case.
Take `COC(=O)C1=C(C)N(C)C(=O)NC1c1cc(Cl)c(O)c(OC)c1` (stereo not given): the EC50 was > 59.6 µM (inactive) in the assay with HEK293 [4], > 59.6 µM (inactive) in the assay on HEK293 [5], > 350 µM (not active) in the assay “cells [6]” and > 350 µM (not active) in “cells [7]”.
Consider `OCCNCCSc1ccc(Cl)cc1`, for which the EC50 in assay [1] was 1.5 µM (active).
Turning to `CCCCN(CC)C(=O)CSc1nc2c(sc(=S)n2-c2ccc(OCC)cc2)c(=O)[nH]1`, on Aminopeptidase N, the IC50 is 38.8 µM (active).
For the compound `Cc1ccc(S(=O)(=O)N(C)C)cc1NC(=O)Nc1c(-c2ccccc2)noc1C`, the IC50 at Aminopeptidase N was 12.9 µM (active).
For the compound `COc1ccc(C(N)=NOC(=O)CSc2ccccc2)cc1`, the IC50 was 5.98 µM (active) in assay [8], 28 µM (active) in assay [9] and 12.8 µM (active) in assay [10].
Consider `CN(C)C(CNC(=O)CSc1nc2sc3c(c2c(=O)n1C)CCCC3)c1ccccc1` (stereo not given), for which the EC50 in the assay with HEK293 [4] and in the assay on HEK293 [5] was > 59.6 µM (inactive) in each case.
In the case of `COc1ccc(O)c(/C=N/NC(=S)Nc2cccnc2)c1`, the values for the IC50 (in [11]; on Nonstructural protein 1; in [12]) were > 66 µM (inactive), 3.04 µM (active) and > 66 µM (inactive), respectively. Moreover, the half-maximal activity concentration (AC50) (as a rule, the concentration giving half of the maximal activity seen) in the assay with INS1 was 1.56 µM (active).
Consider `O=C(O)C(Cc1ccccc1)/N=C/c1c(O)oc2ccccc2c1=O` (stereo not given), for which the IC50 on Aminopeptidase N is 20.6 µM (active).
